Results from publication PMC6981581, “N-(2-Arylmethylthio-4-Chloro-5-Methylbenzenesulfonyl)amide Derivatives as Potential Antimicrobial Agents—Synthesis and Biological Studies” (International Journal of Molecular Sciences, 2019).
≈ marks a conversion by molar mass, not a printed value. Where “and” joins values, the source holds several entries; their conditions need not be identical. Equal entries are not always repeated. Where two headings read alike, the source gives them in different places.

What was measured:
[1] = tested on: clinical isolates of methicillin-resistant S. aureus (50–54) and methicillin-sensitive S. aureus (55–59); assay: Broth dilution MIC/MBC, summary over clinical S. aureus isolates; type: cell-based, Staphylococcus aureus
Description: (§1) […]. Both MRSA and MSSA strains were derived from various human infections.
(§2) […]. Five methicillin-resistant S. aureus strains were isolated from nose (n = 1), bronchoalveolar lavage (n = 1), sputum (n = 1), wound (n = 1), and blood (n = 1); five methicillin-susceptible S. aureus strains were isolated from throat (n = 1), bronchoalveolar lavage (n = 1), sputum (n = 1), abscess (n = 1), and blood (n = 1).
(§3) The identity of S. aureus isolates was confirmed with conventional methods and with Pastorex Staph-Plus latex agglutination kit (Bio-Rad, Marnes-la-Coquette, France) and verified applying the polymerase chain reaction (PCR) of S. aureus-specific region of the thermonuclease gene, nuc. Resistance to methicillin was first verified using cefoxitin disk (30 µg), and then, identified based on the presence of mecA gene. S. aureus ATCC®25923 (methicillin-susceptible) and S. aureus ATCC®43300 (MDR) were applied as the reference strains. Both the reference and clinical strains were stored at −80 °C, in Tryptic Soy Broth (TSB, Becton-Dickinson, Franklin Lakes, NJ, USA) supplemented with 15% glycerol.
(§4) A broth dilution method was used to determine minimal inhibitory concentration (MIC) for tested compounds as recommended by Clinical Laboratory Standards Institute (CLSI) guidelines. Investigated compounds were diluted in Mueller Hinton Broth 2 (Sigma-Aldrich Co., St. Louis, MO, USA) in polypropylene 96-well plates and initial inoculum 5 × 10^5 cfu/mL were incubated at 37 °C for 18 h. MIC was taken as the lowest drug concentration at which an observable growth was inhibited. […] The loopful (10 µL) of the tested sample was transferred to Tryptic Soy Agar (TSA, Becton-Dickinson, Franklin Lakes, NJ, USA) and incubated at 37 °C for 48 h. […] Drug Solutions were made fresh on the day of the assay. All experiments were performed in triplicate.

[2] = tested on: S.aureus 52 (MRSA); assay: Broth dilution MIC/MBC, clinical MRSA isolate; type: cell-based; conditions: Staphylococcus aureus, MRSA
Description: as §1, §2, §3, §4

[3] = tested on: S.aureus 53 (MRSA); assay: Broth dilution MIC/MBC, clinical MRSA isolate; type: cell-based; conditions: Staphylococcus aureus, MRSA
Description: as §1, §2, §3, §4

[4] = tested on: S.aureus 51 (MRSA); assay: Broth dilution MIC/MBC, clinical MRSA isolate; type: cell-based; conditions: Staphylococcus aureus, MRSA
Description: as §1, §2, §3, §4

[5] = tested on: S.aureus 54 (MRSA); assay: Broth dilution MIC/MBC, clinical MRSA isolate; type: cell-based; conditions: Staphylococcus aureus, MRSA
Description: as §1, §2, §3, §4

[6] = tested on: S.aureus 50 (MRSA); assay: Broth dilution MIC/MBC, clinical MRSA isolate; type: cell-based; conditions: Staphylococcus aureus, MRSA
Description: as §1, §2, §3, §4

[7] = tested on: Proteus vulgaris NCTC 4635; assay: Broth dilution MIC/MBC, reference strain; type: cell-based; conditions: Proteus vulgaris, NCTC4635
Experimental: (§5) The tests were carried out using a serial dilution method, allowing the determination of MIC (minimal concentration inhibiting bacterial growth), MBC (minimal bactericidal concentration), and MFC (minimal fungicidal concentration) values.
(§6) Antimicrobial activity was tested using the following reference strains: Staphylococcus aureus ATCC 6538 (MSSA), Staphylococcus aureus ATCC 43300 (MRSA), Staphylococcus epidermidis PCM 2118, Escherichia coli ATCC 11229, Pseudomonas aeruginosa ATCC 15442, Proteus vulgaris NCTC 4635, Enterococcus faecalis ATCC 11420, and Candida albicans ATCC 10231.
as §4

[8] = tested on: Staphylococcus aureus ATCC 43300 (MRSA); assay: Broth dilution MIC/MBC, reference strain; type: cell-based; conditions: Staphylococcus aureus
Experimental: as §5, §6, §4

[9] = tested on: Staphylococcus epidermidis PCM 2118; assay: Broth dilution MIC/MBC, reference strain; type: cell-based
Experimental: as §5, §6, §4

[10] = tested on: Pseudomonas aeruginosa ATCC 15442; assay: Broth dilution MIC/MBC, reference strain; type: cell-based; conditions: Pseudomonas aeruginosa, ATCC15442
Experimental: as §5, §6, §4

[11] = tested on: Staphylococcus aureus ATCC 6538 (MSSA); assay: Broth dilution MIC/MBC, reference strain; type: cell-based; conditions: Staphylococcus aureus
Experimental: as §5, §6, §4

[12] = tested on: Enterococcus faecalis ATCC 11420; assay: Broth dilution MIC/MBC, reference strain; type: cell-based; conditions: Enterococcus faecalis, ATCC11420
Experimental: as §5, §6, §4

[13] = tested on: Escherichia coli ATCC 11229; assay: Broth dilution MIC/MBC, reference strain; type: cell-based; conditions: Escherichia coli, ATCC11229
Experimental: as §5, §6, §4

[14] = tested on: S.aureus 57 (MSSA); assay: Broth dilution MIC/MBC, clinical MSSA isolate; type: cell-based; conditions: Staphylococcus aureus, MSSA
Description: as §1, §2, §3, §4

[15] = tested on: S.aureus 56 (MSSA); assay: Broth dilution MIC/MBC, clinical MSSA isolate; type: cell-based; conditions: Staphylococcus aureus, MSSA
Description: as §1, §2, §3, §4

[16] = tested on: S.aureus 58 (MSSA); assay: Broth dilution MIC/MBC, clinical MSSA isolate; type: cell-based; conditions: Staphylococcus aureus, MSSA
Description: as §1, §2, §3, §4

[17] = tested on: S.aureus 55 (MSSA); assay: Broth dilution MIC/MBC, clinical MSSA isolate; type: cell-based; conditions: Staphylococcus aureus, MSSA
Description: as §1, §2, §3, §4

[18] = tested on: S.aureus 59 (MSSA); assay: Broth dilution MIC/MBC, clinical MSSA isolate; type: cell-based; conditions: Staphylococcus aureus, MSSA
Description: as §1, §2, §3, §4

[19] = tested on: Gram-positive reference strains; assay: Broth dilution MIC/MBC, summary over Gram-positive reference strains; type: cell-based
Experimental: […]. The tests were carried out using a serial dilution method, allowing the determination of MIC (minimal concentration inhibiting bacterial growth), MBC (minimal bactericidal concentration), and MFC (minimal fungicidal concentration) values.
as §6, §4

[20] = tested on: MSSA 59 biofilm; assay: Biofilm inhibition assay (crystal violet); type: cell-based, Staphylococcus aureus; conditions: MSSA 59, 4 × MIC
Experimental: (§7) For many decades, S. aureus has been identified as the most common etiologic agent of device related infections, associated with biofilm formation. These infections are hard to cure because the specific structure of biofilm confers resistance to the host immune response and to the action of antibiotics.
(§8) Then, 100 µL bacterial suspension prepared from fresh overnight culture by diluting with TSB to obtain the initial inoculum 2 × 10^6 CFU/mL was added. The plates were incubated for 24 h at 37 °C. After the incubation, the wells were discarded and were gently rinsed three times with PBS to remove planktonic staphylococcal cells. Then, contents of the wells were discarded and the biofilm was fixed with 200 µL methanol for 20 min and dried at room temperature for 30 min. The biofilm was stained by adding 200 µL 1.8% crystal violet solution for 15 min. After staining, the plates were rinsed with water and 200 µL bleaching solution (30% ethanol, 30% glacial acetic acid, 40% water) added for 15 min to dissolve the remaining crystal violet. A microplater reader was used to measure the absorbance of the adherent biofilm at 570 nm (OD570). […] The negative control included only the growth medium.

[21] = tested on: MSSA 58 biofilm; assay: Biofilm inhibition assay (crystal violet); type: cell-based, Staphylococcus aureus
Experimental: as §7, §8

[22] = tested on: MRSA 52 biofilm; assay: Biofilm inhibition assay (crystal violet); type: cell-based, Staphylococcus aureus; conditions: MRSA 52, 4 × MIC
Experimental: as §7, §8

[23] = tested on: MRSA 51 biofilm; assay: Biofilm inhibition assay (crystal violet); type: cell-based, Staphylococcus aureus
Experimental: as §7, §8

[24] = tested on: HaCaT cell line (human keratinocyte); assay: MTT cell viability assay; type: cell-based; conditions: 72 h, read-out: IC50 HaCaT
[25] = tested on: Candida albicans ATCC 10231; assay: Broth dilution MIC/MFC, reference fungal strain; type: cell-based; conditions: Candida albicans, ATCC10231
Experimental: as §5, §6, §4

`Cc1cc(S(=O)(=O)NC(=O)C=Cc2ccccc2)c(SCc2cccc3ccccc23)cc1Cl` [Compound 16, N-[4-Chloro-5-methyl-2-(naphthalen-1-ylmethylthio)benzenesulfonyl]cinnamamide] was tested, and the MBC ([1]; Staphylococcus aureus) was > 128 µg/mL, the MIC ([1]; Staphylococcus aureus) was 4 to 8 µg/mL (≈ 7.87 to 15.7 µM) and the MIC ([1]; summary over ten clinical MRSA and MSSA isolates (Table 4)) was 4 to 8 µg/mL. The MBC [2] was > 128 µg/mL, the MIC [2] was 4 µg/mL (≈ 7.87 µM) and the MBC [3] was > 128 µg/mL. The MIC [3] was 8 µg/mL (≈ 15.7 µM), the MBC [4] was > 128 µg/mL and the MIC [4] was 4 µg/mL (≈ 7.87 µM). For the same compound, the MBC [5] was > 128 µg/mL, the MIC [5] was 8 µg/mL (≈ 15.7 µM) and the MBC [6] was > 128 µg/mL. The MIC [6] was 4 µg/mL (≈ 7.87 µM), the MBC [7] was > 128 µg/mL and the MIC [7] was 128 µg/mL (≈ 252 µM). For the same compound, the MBC [8] was > 128 µg/mL, the MIC [8] was 4 µg/mL (≈ 7.87 µM) and the MBC ([9]; S. epidermidis PCM 2118) was 4 µg/mL (≈ 7.87 µM). The MIC ([9]; Staphylococcus epidermidis, PCM2118) was 4 µg/mL (≈ 7.87 µM), the MBC ([9]; Staphylococcus epidermidis, PCM2118, S. epidermidis PCM 2118, read-out: MBC) was 4 to 16 µg/mL (≈ 7.87 to 31.5 µM) and the MBC [10] was > 128 µg/mL. For the same compound, the MIC [10] was 128 µg/mL (≈ 252 µM), the MBC [11] was > 128 µg/mL and the MIC [11] was 4 µg/mL (≈ 7.87 µM). For the same compound, the MBC [12] was > 128 µg/mL, the MIC [12] was 8 µg/mL (≈ 15.7 µM) and the MBC [13] was > 128 µg/mL. The MIC [13] was 128 µg/mL (≈ 252 µM), the MBC [14] was > 128 µg/mL and the MIC [14] was 4 µg/mL (≈ 7.87 µM). For the same compound, the MBC [15] was > 128 µg/mL, the MIC [15] was 4 µg/mL (≈ 7.87 µM) and the MBC [16] was > 128 µg/mL. For the same compound, the MIC [16] was 8 µg/mL (≈ 15.7 µM), the MBC [17] was > 128 µg/mL and the MIC [17] was 4 µg/mL (≈ 7.87 µM). For the same compound, the MBC [18] was > 128 µg/mL, the MIC [18] was 4 µg/mL (≈ 7.87 µM) and the MIC [19] was 4 to 8 µg/mL (≈ 7.87 to 15.7 µM). The “inhibition of biofilm formation” value [20] was 87–90%, the “inhibition of biofilm formation” value ([21]; MSSA 58, 2 × MIC) was 86% and the “inhibition of biofilm formation” value ([21]; MSSA 58, concentration equal to the MIC) was 44%. The “inhibition of biofilm formation” value [22] was 87–90%, the “inhibition of biofilm formation” value ([23]; MRSA 51, 4 × MIC) was 87–90% and the “inhibition of biofilm formation” value ([23]; MRSA 51, concentration equal to the MIC) was 35%. For the same compound, the IC50 [24] was 19 µg/mL and 38 µM, the MFC [25] was 128 µg/mL (≈ 252 µM) and the MIC [25] was 64 µg/mL (≈ 126 µM).
